The values below come from patent US7022681B2, “Partial and full agonists of A1 adenosine receptors” (CV Therapeutics, Inc., priority 2002, dated 2006).

One data set concerns the target A1 receptor (Cavia porcellus, UniProt P47745). Conditions: chronic administration for 7 days, guinea pigs; cited from earlier work.
In data set [1] the test system is awake rats. The experiment in a line: Heart rate in awake rats (telemetry). Format: in vivo, rat. To be noted: dose levels of 1 mg/kg, 2.5 mg/kg, and 5 mg/kg. The protocol: Heart rate was measured from rats chronically instrumented with telemetry transmitters. For transmitter implantation, a midline laparotomy was performed on anesthetized rats and a transmitter for ECG recording was sutured to the abdominal wall. The two electrocardiographic leads were tunneled through the wall, passed subcutaneously (one to the left shoulder, the other to the right thigh), and secured in place with sutures. Heart rates of awake rats were measured using a Dataquest ART Gold System (Data Sciences International, St. Paul, Minn.). Cardiac electrical activity was recorded for 10-s periods and used to calculate heart rate in beats per minute. After recording of a baseline heart rate, either vehicle (0.9% DMSO in saline, 0.5 ml) or a compound of Formula I was injected into the intraperitoneal cavity of each rat, and heart rate was monitored at intervals for an additional 3 hours.
The effects of a compound of Formula I on heart rate and serum NEFA reduction concentration were determined in separate groups of rats to avoid the effects of animal handling and blood sampling on heart rate. Three days before an experiment, a catheter ([…] outer diameter) was implanted in the left common carotid artery of each rat using aseptic conditions and sterile technique. […] Serum NEFA concentration was determined using an enzymatic colorimetric assay kit (Wako Chemicals, Richmond, Va.).

Data set [2] relates to awake rats. The experiment in a line: Antilipolytic properties: NEFA concentration in awake rats. The class given is in vivo, rat. Conditions: oral administration. The text has this: • Animals. Male Sprague-Dawley rats (380–420 g) were purchased from Simonsen Laboratories (Gilroy, Calif.). All animals received humane care according to the guidelines set forth in The Principles of Laboratory Animal Care formulated by the National Society for Medical Research and the Guide for the Care and Use of Laboratory Animals prepared by the Institute of Laboratory Animal Resources and published by the National Institute of Health (NIH Publication 86-23, revised 1996). • Isolation of Rat Epididymal Adipocytes. Adipocytes were isolated from the epididymal fat pads of rats as described previously (Rodbell, 1964). Briefly, rats were anesthetized using methoxyfluorane and killed by exsanguination. Epididymal fat tissue was removed and placed into a modified Krebs (KRH) solution containing NaCl (100 mM), KCl (4.7 mM), CaCl2 (2.5 mM), NaHCO3 (3.6 mM), MgSO4 (1.19 mM), KH2PO4 (1.18 mM), dextrose (5 mM), pyruvic acid (5 mM), ascorbic acid (1 mM), and HEPES (5 mM), pH 7.4. Visible blood vessels were dissected and excised, and the adipose tissue was minced. Minced tissue was digested with 25 ml of fresh KRH solution containing type I collagenase (1 mg/ml), fatty-acid free BSA [1% (wt/vol)] and nicotinic acid (2_M, to inhibit lipolysis) for 40 to 60 minutes at 37° C. with continuous gentle shaking. The cell suspension was filtered through a nylon-mesh (210_m) to remove undigested tissue fragments. The cell filtrate was washed three times using KRH solution containing 1% fatty acid-free BSA at 37° C. The final adipocyte suspension was either diluted in fresh KRH solution with 1% fatty acid-free BSA for use in cAMP experiments, or used to prepare membranes for radioligand binding assays. • cAMP Assays in Isolated Rat Adipocytes. Aliquots (100 μl, 45,000–90,000 cells) of the freshly prepared adipocyte cell suspension were placed into wells of 24-well cell culture plates containing 0.4 ml of KRH solution containing fatty acid-free BSA (1%), ascorbic acid (1 mM), rolipram (10 μM), cilostamide (1 μM), adenosine deaminase (2 U/ml), and appropriate A1 adenosine receptor agonist(s). An aliquot of 0.5 ml of KRH solution containing 60 nM isoproterenol was added to each well, and incubations proceeded for 4 min in an orbital shaker bath maintained at 37° C. Assays were terminated by the addition of 200 μl of 300 mM HCl to each well to lyse the cells. The concentration of cAMP in the cell lysate was determined using colorimetric direct cAMP kits (Assay Designs, Inc., Ann Arbor, Mich.). Adipocyte Membrane Preparation and Competition Binding • Assays. Freshly isolated adipocytes were added to a chilled solution containing sucrose (0.25 M), EDTA (1 mM), and Tris-HCl (10 mM, pH 7.4) and homogenized with 10 strokes using a motordriven tissue grinder. The homogenate was cooled on ice and the fat layer was discarded. The homogenate was then centrifuged at 500 g for 10 min at 4° C. The supernatant under the fat layer was removed, resuspended in fresh buffer, and homogenized a second time with six strokes using the tissue grinder. Cell membranes were collected by centrifugation of the homogenate at 15,000 g for 15 min. The final membrane pellet was resuspended in a solution containing sucrose (0.25 M), phenylmethylsulfonyl fluoride (0.1 mM), leupeptin (5 μg/ml), aprotinin ([…]), adenosine deaminase (2 U/ml), and Tris-HCl (10 mM) buffer, pH 7.4. The membrane suspension was frozen and stored in liquid nitrogen. For competition binding assays, membrane suspensions were thawed and incubated for 2 hours at room temperature in Tris-HCl (50 mM) buffer containing ADA (1 U/ml), guanosine 5-(imido)triphosphate ([…]), and [3H]CPX (1–3nM) and progressively higher concentrations of the competing agent. At the end of incubation, free radioligand was separated from membrane-bound radioligand by filtration through GF/C glass fiber filters (Whatman, Maidstone, UK) using a tissue harvester (Brandel, Inc., Gaithersburg, Md.). Radioactivity was quantified by liquid scintillation counting. […]

A further data set deals with seizures induced by DMCM. To be noted: experimental models of epilepsy; cited from earlier work.

Chain of A1 receptor (P47745 whole entry): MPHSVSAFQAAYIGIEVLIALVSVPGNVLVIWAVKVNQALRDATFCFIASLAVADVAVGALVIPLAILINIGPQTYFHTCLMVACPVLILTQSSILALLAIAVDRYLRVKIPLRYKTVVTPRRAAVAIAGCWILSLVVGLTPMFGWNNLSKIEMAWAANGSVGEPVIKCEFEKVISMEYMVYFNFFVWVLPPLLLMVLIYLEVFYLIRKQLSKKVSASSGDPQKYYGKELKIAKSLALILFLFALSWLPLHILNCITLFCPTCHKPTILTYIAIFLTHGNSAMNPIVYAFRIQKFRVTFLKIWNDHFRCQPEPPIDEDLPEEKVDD

In the case of `C[C@H](Cc1ccccc1)Nc1ncnc2c1ncn2[C@@H]1O[C@H](CO)[C@@H](O)[C@H]1O` [R-PIA, R-N6-phenylisopropyladenosine], on A1 receptor, the “desensitization in terms of the dromotropic response” value was “desensitization of the A1 receptor”.

Take `O[C@@H]1[C@H](O)[C@@H](C#Cc2ccccc2F)O[C@H]1n1cnc2c(NC3CCCC3)ncnc21` [(4S,2R,3R,5R)-2-[6-(cyclopentylamino)purin-9-yl]-5-{2-[2-fluorophenyl]-ethynyl}oxolane-3,4-diol]: in the data set with awake rats [1], the “effect on heart rate” value is “no effect on heart rate was observed”. For the same compound, in the data set with awake rats [2] (1 mg/Kg), the “initial reduction of non-esterified free fatty acid (NEFA)” value is recorded as 40%, the “time in which plasma levels of NEFA returned to normal” value is 2 h and the “time the NEFA reduction was maintained” value was 1 h. For the same compound, in the data set on awake rats [2] (2.5 mg/Kg), the “initial reduction of non-esterified free fatty acid (NEFA)” value is 60%, the “time in which plasma levels of NEFA returned to normal” value is 4 h and the “time the NEFA reduction was maintained” value turned out to be 1.5 h.

`Cc1ccccc1CNc1ncnc2c1ncn2[C@@H]1O[C@H](CO)[C@@H](O)[C@H]1O` [metrifudil]: in the data set on seizures induced by DMCM, the “anticonvulsant activity against seizures induced by DMCM” value is reported as “potent anticonvulsant”.
